According to PubChem BioAssay (NCI):
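How tested: cells in 96-well plates exposed to compound for 48 hours at five concentrations. At the GI50, growth is halved. TGI marks complete inhibition of growth.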

Key:
Assay in all cases: DTP human tumour cell line panel, 48 h
[1] = test system: SF-539 CNS
[2] = test system: DU-145 prostate
[3] = test system: M14 melanoma
[4] = test system: RPMI-8226 leukemia
[5] = test system: MCF7 breast
[6] = test system: NCI-H460 lung
[7] = test system: K-562 leukemia
[8] = test system: UACC-62 melanoma
[9] = test system: SW-620 colon
[10] = test system: EKVX NSCLC

| Structure (SMILES) | GI50 [1] [µM] | TGI [1] [µM] | GI50 [2] [µM] | TGI [2] [µM] | GI50 [3] [µM] | TGI [3] [µM] | GI50 [4] [µM] | TGI [4] [µM] | GI50 [5] [µM] | TGI [5] [µM] | GI50 [6] [µM] | TGI [6] [µM] | GI50 [7] [µM] | TGI [7] [µM] | GI50 [8] [µM] | TGI [8] [µM] | GI50 [9] [µM] | TGI [9] [µM] | TGI [10] [µM] | GI50 [10] [µM] |
| --- | --- | --- | --- | --- | --- | --- | --- | --- | --- | --- | --- | --- | --- | --- | --- | --- | --- | --- | --- | --- |
| CC(C)Oc1cc(OCC(=O)O)cc(C(=O)N(CCC(N)=O)C(=O)Nc2ccc(C(=O)O)cc2OC(C)C)c1 | > 100 | > 100 | > 100 | > 100 | > 100 | > 100 | > 100 | > 100 | > 100 | > 100 | > 100 | > 100 | > 100 | > 100 | > 100 | > 100 | > 100 | > 100 | – | – |
| CCc1ccc(Cc2ccc(CC)c(NC(=O)C(=O)Cc3nc4ccccc4nc3C)c2CC)c(CC)c1NC(=O)C(=O)Cc1nc2ccccc2nc1C | – | > 100 | – | – | – | > 100 | – | > 100 | – | – | – | > 100 | – | > 100 | – | > 100 | – | > 100 | > 100 | – |
| CCCCNC(=S)Nn1c(-c2ccccc2)nc2ccccc2c1=O | – | > 100 | – | – | – | > 100 | – | > 100 | – | – | – | > 100 | – | > 100 | – | > 100 | – | > 100 | – | – |
| CN(C)CCCn1cnc2ncccc2c1=O | – | > 100 | – | – | – | > 100 | – | – | – | – | – | > 100 | – | > 100 | – | > 100 | – | > 100 | > 100 | – |
| CCCOC(=O)C1CCC(=O)N1C(=O)C(Cl)Cl (stereo not drawn) | – | – | – | – | – | > 100 | – | > 100 | – | – | – | > 100 | – | > 100 | – | > 100 | – | > 100 | > 100 | – |
| COC1OC(OC)C2C(c3c(C)cc(C)cc3C)=NOC12 (stereo not drawn) | – | – | – | – | – | > 100 | – | > 100 | – | – | – | > 100 | – | > 100 | – | > 100 | – | > 100 | > 100 | – |
| COCCNC(=O)C1C(=O)N(CCOC)C(=O)/C1=N/N (stereo not drawn) | – | > 100 | – | – | – | > 100 | – | > 100 | – | – | – | – | – | > 100 | – | > 100 | – | > 100 | > 100 | – |
| C=C1C(=O)O[C@@H]2[C@@H]3O[C@@](C)(CC/C=C(\C)CCC[C@@H]2C)[C@H](O)C[C@@H]13 | 2.7 | 8.9 | – | 19.4 | 1.72 | 3.48 | – | > 100 | – | – | – | 31.6 | 3.1 | 9.58 | 2.05 | 5.11 | 2.03 | 3.96 | 20.3 | 5.56 |
| CCCCN(CCCC)C(=Nc1ccccc1)N(CCCC)CCCC | – | 24.6 | – | – | – | – | – | 4.42 | – | – | – | 19.1 | – | 10.4 | – | – | – | 15.8 | 17.5 | – |
| CCN(CC)CCn1c(=N)n(CC(O)c2ccc(Cl)c(Cl)c2)c2ccccc21 (stereo not drawn) | 2.86 | 10.1 | 13.9 | 26.8 | 2.07 | 3.74 | 2.72 | 8.02 | 2.83 | 8.56 | 4.97 | 17.9 | 2.33 | 6.36 | 1.94 | 3.89 | 11 | 24.8 | – | – |
| N#Cc1c([N+](=O)[O-])cc(C(F)(F)F)cc1[N+](=O)[O-] | – | 11 | – | – | – | 17.1 | – | 6.28 | – | – | – | 40.3 | – | 5.08 | – | 12.2 | – | 8.77 | 32.9 | – |
